This passage reports Cmax and EC50 results from patent publication US10654834B2 (Venenum Biodesign, LLC, priority 2016, dated 2020).

The nature of series [1]: Pharmacokinetic profile in mice after oral gavage. It is filed as in vivo, mouse. The note with it: mouse; fasted male Hilltop mice, 10 mg/kg oral gavage, plasma; read-out: Cmax. In outline:
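Plasma exposure (Cmax, AUC) by non-compartmental analysis of LC-MS/MS data, orbital blood taken at 0, 0.25, 0.5, 1, 2 and 4 h, each value averaging three mice. Dosing: 10 mg/kg oral gavage to overnight-fasted male Hilltop mice (8 weeks), vehicle PEG400/CMC/Tween-80.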

Series [2] deals with T1, human TGR5 receptor (Homo sapiens, UniProt Q8TDU6).
T1 construct: host or cells: CHO-K1 (hTGR5-CHO)
T1 sequence (Q8TDU6 1-330): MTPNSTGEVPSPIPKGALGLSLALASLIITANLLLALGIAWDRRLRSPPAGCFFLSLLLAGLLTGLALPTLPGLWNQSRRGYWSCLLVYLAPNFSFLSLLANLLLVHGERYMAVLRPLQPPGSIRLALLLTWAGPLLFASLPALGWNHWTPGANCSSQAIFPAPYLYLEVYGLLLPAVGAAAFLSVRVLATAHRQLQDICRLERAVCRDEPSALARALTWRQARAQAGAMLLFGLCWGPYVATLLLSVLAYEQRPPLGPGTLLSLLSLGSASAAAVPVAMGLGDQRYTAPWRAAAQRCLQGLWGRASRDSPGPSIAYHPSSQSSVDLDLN
Description: Human TGR5 cAMP production assay (hTGR5-CHO cells, DiscoveRx cAMP XS+ kit). The note with it: luminescent cAMP assay, read-out: Human TGR5 Lum. cAMP Activity (EC50). It is filed as cell-based. In outline: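 EC50 values come from luminescent enzyme-complementation cAMP detection, read after overnight incubation. Beforehand, hTGR5-expressing CHO-K1 cells with IBMX and anti-cAMP antibody were exposed 1 h at room temperature to serially diluted (half-log) compounds.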
In general terms: Cyclic AMP is a second messenger, typically raised through Gs and lowered through Gi signalling.

Molecules are shown by their SMILES. pEC50: −log10 of the molar value.

On to `N#Cc1ccc(CCNC(=O)[C@@H]2CCCN2c2cc(N3CCC(CCCC(=O)NCCS(=O)(=O)NCC(=O)O)CC3)nc(C(F)(F)F)n2)cc1` [Compound 115, (S)-2-(2-(4-(1-(6-(2-((4-cyanophenethyl)carbamoyl)pyrrolidin-1-yl)-2-(trifluoromethyl)pyrimidin-4-yl)piperidin-4-yl)butanamido)-ethylsulfonamido)acetic acid], for which, in series [1], the Cmax (in general, the peak of the concentration-time curve) is 2.7 ng/mL. Also, the negative logarithm of the EC50 (pEC50) (as a rule, −log10 of the EC50, conventionally taken in molar units) in series [2] was over 7.00.
As for `N#Cc1ccc(CCNC(=O)[C@@H]2CCCN2c2cc(N3CCC(CCCNC(=O)NCCS(N)(=O)=O)CC3)nc(C(F)(F)F)n2)cc1` [Compound 120, (S)-N-(4-cyanophenethyl)-1-(6-(4-(3-(3-(2-sulfamoylethyl)ureido)propyl)piperidin-1-yl)-2-(trifluoromethyl)pyrimidin-4-yl)pyrrolidine-2-carboxamide], the Cmax in series [1] was found to be 2.6 ng/mL. Further, the pEC50 in series [2] was over 7.00.
On to `N#Cc1ccc(CCNC(=O)[C@@H]2CCCN2c2cc(N3CCC(CCCNC(=O)NCC(=O)O)CC3)nc(C(F)(F)F)n2)cc1` [Compound 121, (S)-2-(3-(3-(1-(6-(2-((4-cyanophenethyl)carbamoyl)pyrrolidin-1-yl)-2-(trifluoromethyl)pyrimidin-4-yl)piperidin-4-yl)propyl)ureido)acetic acid], for which the Cmax in series [1] was found to be 235 ng/mL. Further, the pEC50 in series [2] was 6.00 to 7.00.
Regarding `N#Cc1ccc(CCNC(=O)[C@@H]2CCCN2c2cc(N3CCC(CCNC(=O)[C@@H](N)CS(=O)(=O)O)CC3)nc(C(F)(F)F)n2)cc1` [Compound 123, (R)-2-amino-3-((2-(1-(6-((S)-2-((4-cyanophenethyl)carbamoyl)pyrrolidin-1-yl)-2-(trifluoromethyl)pyrimidin-4-yl)piperidin-4-yl)ethyl)amino)-3-oxopropane-1-sulfonic acid], the Cmax in series [1] stood at 1.4 ng/mL. For the same molecule, the pEC50 in series [2] is over 7.00.
Regarding `N#Cc1ccc(CCNC(=O)[C@@H]2CCCN2c2cc(N3CCC(CCNS(=O)(=O)CCNC(=O)[C@@H](N)CS(=O)(=O)O)CC3)nc(C(F)(F)F)n2)cc1` [Compound 125, (R)-2-amino-3-((2-(N-(2-(1-(6-((S)-2-((4-cyanophenethyl)carbamoyl)-pyrrolidin-1-yl)-2-(trifluoromethyl)-pyrimidin-4-yl)piperidin-4-yl)ethyl)sulfamoyl)ethyl)amino)-3-oxopropane-1-sulfonic acid], the Cmax in series [1] was found to be 0.14 ng/mL. The pEC50 in series [2] was over 7.00.
For `N#Cc1ccc(CCNC(=O)[C@@H]2CCCN2c2cc(N3CCC(CCNC(=N)N)CC3)nc(C(F)(F)F)n2)cc1` [Compound 126, (S)—N-(4-cyanophenethyl)-1-(6-(4-(2-guanidinoethyl)piperidin-1-yl)-2-(trifluoromethyl)pyrimidin-4-yl)pyrrolidine-2-carboxamide] the same measures were 2 ng/mL and over 7.00.
For `N#Cc1ccc(CCNC(=O)[C@@H]2CCCN2c2cc(N3CCC(CCCC(=O)NCCNC(=N)N)CC3)nc(C(F)(F)F)n2)cc1` [Compound 128, (S)-N-(4-cyanophenethyl)-1-(6-(4-(4-((2-guanidinoethyl)amino)-4-oxobutyl)piperidin-1-yl)-2-(trifluoromethyl)pyrimidin-4-yl)pyrrolidine-2-carboxamide] the same measures were 670 ng/mL and over 7.00.
On the same counts, the results for `N#Cc1ccc(CCNC(=O)[C@@H]2CCCN2c2cc(N3CCC(CCCC(=O)NCCCC[C@H](NC(=N)N)C(=O)O)CC3)nc(C(F)(F)F)n2)cc1` [Compound 129, (S)-6-(4-(1-(6-((S)-2-((4-cyanophenethyl)carbamoyl)pyrrolidin-1-yl)-2-(trifluoromethyl)pyrimidin-4-yl)piperidin-4-yl)butanamido)-2-guanidinohexanoic acid] are 0.6 ng/mL and over 7.00.
Turning to `N#Cc1ccc(CCNC(=O)[C@@H]2CCCN2c2cc(N3CCC(CCNS(=O)(=O)CCNC(=N)N)CC3)nc(C(F)(F)F)n2)cc1` [Compound 130, (S)-N-(4-cyanophenethyl)-1-(6-(4-(2-(2-guanidinoethylsulfonamido)ethyl)piperidin-1-yl)-2-(trifluoromethyl)pyrimidin-4-yl)pyrrolidine-2-carboxamide], the Cmax in series [1] stood at 2.8 ng/mL. Besides, the negative-log EC50 (pEC50) in series [2] was over 7.00.
For `N=C(N)N[C@@H](CCC(=O)NCCCC1CCN(c2cc(N3CCC[C@H]3C(=O)NCCc3ccc(C(F)(F)F)cc3)nc(C(F)(F)F)n2)CC1)C(=O)O` [Compound 133, (S)-2-guanidino-5-oxo-5-((3-(1-(2-(trifluoromethyl)-6-((S)-2-((4-(trifluoromethyl)phenethyl)carbamoyl)pyrrolidin-1-yl)pyrimidin-4-yl)piperidin-4-yl)propyl)amino)pentanoic acid] the same measures were 4.1 ng/mL and over 7.00.
On to `N#Cc1ccc(CCNC(=O)[C@@H]2CCCN2c2cc(N3CCC(OCC#CCS(=O)(=O)O)CC3)nc(C(F)(F)F)n2)cc1` [Compound 134, (S)-4-((1-(6-(2-((4-cyanophenethyl)carbamoyl)pyrrolidin-1-yl)-2-(trifluoromethyl)pyrimidin-4-yl)piperidin-4-yl)oxy)but-2-yne-1-sulfonic acid], for which the Cmax in series [1] came to 22 ng/mL. Besides, the negative-log EC50 (pEC50) in series [2] was over 7.00.
For `N#Cc1ccc(CCNC(=O)[C@@H]2CCCN2c2cc(N3CCC(CCCC(=O)O)CC3)cc(C(F)(F)F)n2)cc1` [Compound 197, (S)-4-(1-(2-(2-((4-cyanophenethyl)carbamoyl)pyrrolidin-1-yl)-6-(trifluoromethyl)pyridin-4-yl)piperidin-4-yl)butanoic acid] the same measures were 143 ng/mL and over 7.00.
With `N#Cc1ccc(CCNC(=O)[C@@H]2CCCN2c2cc(N3CCC(CCCC(=O)NCS(=O)(=O)O)CC3)cc(C(F)(F)F)n2)cc1` [Compound 198, (S)-(4-(1-(2-(2-((4-cyanophenethyl)carbamoyl)pyrrolidin-1-yl)-6-(trifluoromethyl)pyridin-4-yl)piperidin-4-yl)butanamido)methanesulfonic acid], in series [1], the peak concentration (Cmax) came to 6.8 ng/mL. Moreover, in series [2], the negative-log EC50 (pEC50) was over 7.00.
For `N#Cc1ccc(CCNC(=O)[C@@H]2CCCN2c2cc(N3CCC(CCCC(=O)NCCS(=O)(=O)O)CC3)cc(C(F)(F)F)n2)cc1` [Compound 199, (S)-2-(4-(1-(2-(2-((4-cyanophenethyl)carbamoyl)pyrrolidin-1-yl)-6-(trifluoromethyl)pyridin-4-yl)piperidin-4-yl)butanamido)ethanesulfonic acid] the same measures were 1 ng/mL and over 7.00.
`N#Cc1ccc(CCNC(=O)[C@@H]2CCCN2c2cc(N3CCC(CCCC(=O)N[C@@H](CCCNC(=N)N)C(=O)N[C@@H](CCCNC(=N)N)C(=O)O)CC3)cc(C(F)(F)F)n2)cc1` [Compound 202, (S)-2-((S)-2-(4-(1-(2-((S)-2-((4-cyanophenethyl)carbamoyl)pyrrolidin-1-yl)-6-(trifluoromethyl)pyridin-4-yl)piperidin-4-yl)butanamido)-5-guanidinopentanamido)-5-guanidinopentanoic acid]: in series [1], the Cmax was under 0.1 ng/mL. Moreover, in series [2], the pEC50 is over 7.00.
For `N#Cc1ccc(CCNC(=O)[C@@H]2CCCN2c2cc(-c3ccc(CO)cc3)cc(C(F)(F)F)n2)cc1` [Compound 204, (S)—N-(4-cyanophenethyl)-1-(4-(4-(hydroxymethyl)phenyl)-6-(trifluoromethyl)pyridin-2-yl)pyrrolidine-2-carboxamide] the same measures were 4.4 ng/mL and over 7.00.
